Where “and” joins values, the source holds several entries; their conditions need not be identical. Equal values may be shown once. Read-outs that look alike come from different tables or passages of the source.
Test: Plasma pharmacokinetics of Compound I after single intraperitoneal dose in Swiss-Webster mice (Example 1)
Type: in vivo
Experimental: Example 1 provides a summary of three pharmacokinetic studies Compound I conducted in Swiss-webster mice. The pharmacokinetics of 5 mg/kg, 15 mg/kg and 50 mg/kg of Compound I via the intraperitoneal route were discussed.
Compound I was prepared using the method described in the U.S. Publication 2012/0040932 A1. 100 mg of Compound I was dissolved in 30% 1N NaOH to ˜pH 5.0 as a stock solution. Compound I was further diluted in 0.9% saline to achieve target concentrations.
The specifications for animals used on this study were as follows: • Species: Mouse • Strain: CFW (Swiss) • Gender: Female • Source: Harlan Laboratories (Livermore, Calif.) • Number of Animals: 33 for each dose • Body Weight Range: 18-22 g at the start of the study
After acclimation, mice were administered a single intraperitoneal dose of Compound I at 5, 15, and 50 mg/kg. Groups of three mice were sacrificed at 0.08, 0.16, 0.25, 0.33, 0.5, 0.75, 1.0, 2.0, 3.0, and 4.0 h after dosing. Blood samples (one sample per animal) were collected by cardiac puncture in a heparin containing tube. Blood samples were centrifuged within 5 min of collection at 12000 g for 5 min to obtain plasma. The plasma samples were stored on −80° C. until analyzed.
Compound I standard curves were prepared in plasma from 0.1 to 100 μg/mL. 50 μl aliquots of sample were placed in 1.5 mL microcentrifuge tubes. 20 μl of Compound II (10 μg/mL) was added as internal standard to each sample or standard. 20 μl of 30% trichloroacetic acid was then added to each sample or standard. The samples were mixed using a vortex mixer centrifuged for 10 min at 15,000 RPM using a tabletop centrifuge. The supernatant (approx. […]) was removed and added to 100 μl of water in a 96-well plate. The samples were mixed again using a vortex mixer. 10 μl of each sample was injected onto an HPLC-MS for quantification.
The HPLC-MS conditions for plasma analysis are as follows: • Column: Phenomenex Fusion-RP or equivalent reversed-phase column, 5 um, 50×2 mm. • Flow rate: 0.6 mL/min. • Mobile phase A: 0.1% formic acid in water. • Mobile phase B: 0.1% formic acid in acetonitrile. • Gradient: 5-60% B in 1.5 min. • Mass spectrometer: Negative ion mode with electrospray ionization. • MS/MS: Compound I-Q1-m/e=296, Q3-m/e=234. • Compound II-Q1-m/e=331, Q3-m/e=201.
Plasma concentrations were fit using a one compartment IV infusion model (WinNonlinVersion 5.3, Pharsight Corp, and Mountain View, Calif.).

[1] = Swiss-Webster mice, plasma, 5 mg/kg intraperitoneal
[2] = Swiss-Webster mice, plasma, 15 mg/kg intraperitoneal
[3] = Swiss-Webster mice, plasma, 50 mg/kg intraperitoneal
[4] = female, CFW (Swiss-Webster), mouse, ip, Swiss-Webster mice, plasma, 5 mg/kg intraperitoneal
[5] = female, CFW (Swiss-Webster), mouse, ip, Swiss-Webster mice, plasma, 15 mg/kg intraperitoneal
[6] = female, CFW (Swiss-Webster), mouse, ip, Swiss-Webster mice, plasma, 50 mg/kg intraperitoneal

With `O=C(O)C[C@@H]1CC[C@H](NC(=O)Cc2cccs2)B(O)O1` [Compound I] the Linearity of pharmacokinetics (Swiss-Webster mice, dose range of 5 to 50 mg/kg intraperitoneal) was “linear PK”, the AUC [1] was 3.1 µg·h/mL and the Cl [1] was 1.61 L/h/kg. The AUC [2] was 8.3 µg·h/mL, the Cl [2] was 1.8 L/h/kg and the AUC [3] was 31.4 µg·h/mL. It also gave a Cl [3] of 1.6 L/h/kg, a Cmax [4] of 8.26 µg/mL and a half-life [4] of 9.6 min. It also gave a Cmax [5] of 19.5 µg/mL, a half-life [5] of 12 min and a Cmax [6] of 67.1 µg/mL. The half-life [6] was 15 min, the concentration at 0.08 h (female, CFW (Swiss-Webster), mouse, plasma, ip, 5 mg/kg, mouse plasma, 5 mg/kg intraperitoneal, samples m.p. 1.x = 1st time point (0.08 h), individual animals, read-out: Calc. Conc. (plasma concentration)) was 5.58 µg/mL and the concentration at 0.5 h (female, CFW (Swiss-Webster), mouse, plasma, ip, 5 mg/kg, mouse plasma, 5 mg/kg intraperitoneal, samples m.p. 5.x = 5th time point (0.5 h), individual animals, read-out: Calc. Conc. (plasma concentration)) was 1.55 µg/mL. The concentration at 4 h (female, CFW (Swiss-Webster), mouse, plasma, ip, 5 mg/kg, mouse plasma, 5 mg/kg intraperitoneal, samples m.p. 10.x = 10th time point (4.0 h), individual animals, read-out: Calc. Conc. (plasma concentration)) was 0.00371 µg/mL, the concentration at 0.08 h (female, CFW (Swiss-Webster), mouse, plasma, ip, 15 mg/kg, mouse plasma, 15 mg/kg intraperitoneal, samples m.p. 1.x = 1st time point (0.08 h), individual animals, read-out: Calc. Conc. (plasma concentration)) was 16.7 µg/mL and the concentration at 0.16 h (female, CFW (Swiss-Webster), mouse, plasma, ip, 15 mg/kg, mouse plasma, 15 mg/kg intraperitoneal, samples m.p. 2.x = 2nd time point (0.16 h), individual animals, read-out: Calc. Conc. (plasma concentration)) was 15.5 µg/mL. For the same compound, the concentration at 2 h (female, CFW (Swiss-Webster), mouse, plasma, ip, 15 mg/kg, mouse plasma, 15 mg/kg intraperitoneal, samples m.p. 8.x = 8th time point (2.0 h), individual animals, read-out: Calc. Conc. (plasma concentration)) was 0.126 µg/mL, the concentration at 4 h (female, CFW (Swiss-Webster), mouse, plasma, ip, 15 mg/kg, mouse plasma, 15 mg/kg intraperitoneal, samples m.p. 10.x = 10th time point (4.0 h), individual animals, read-out: Calc. Conc. (plasma concentration)) was < 0 µg/mL and the concentration at 0.08 h (female, CFW (Swiss-Webster), mouse, plasma, ip, 50 mg/kg, mouse plasma, 50 mg/kg intraperitoneal, samples m.p. 1.x = 1st time point (0.08 h), individual animals, read-out: Calc. Conc. (plasma concentration)) was 34.8 µg/mL. For the same compound, the concentration at 0.16 h (female, CFW (Swiss-Webster), mouse, plasma, ip, 50 mg/kg, mouse plasma, 50 mg/kg intraperitoneal, samples m.p. 2.x = 2nd time point (0.16 h), 5x dil., individual animals, read-out: Calc. Conc. (plasma concentration)) was 58.9 µg/mL, the concentration at 0.25 h (female, CFW (Swiss-Webster), mouse, plasma, ip, 50 mg/kg, mouse plasma, 50 mg/kg intraperitoneal, samples m.p. 3.x = 3rd time point (0.25 h), 5x dil., individual animals, read-out: Calc. Conc. (plasma concentration)) was 64.2 µg/mL and the concentration at 0.75 h (female, CFW (Swiss-Webster), mouse, plasma, ip, 50 mg/kg, mouse plasma, 50 mg/kg intraperitoneal, samples m.p. 6.x = 6th time point (0.75 h), individual animals, read-out: Calc. Conc. (plasma concentration)) was 19.1 µg/mL. For the same compound, the concentration at 3 h (female, CFW (Swiss-Webster), mouse, plasma, ip, 50 mg/kg, mouse plasma, 50 mg/kg intraperitoneal, samples m.p. 9.x = 9th time point (3.0 h), individual animals, read-out: Calc. Conc. (plasma concentration)) was 0.181 µg/mL, the “Calc. Conc. (plasma concentration)” value (mouse plasma, 5 mg/kg intraperitoneal, samples m.p. 1.x = 1st time point (0.08 h), individual animals, 5 mg/kg) was 5.77 µg/mL and 4.84 µg/mL and the “Calc. Conc. (plasma concentration)” value (mouse plasma, 5 mg/kg intraperitoneal, samples m.p. 2.x = 2nd time point (0.16 h), individual animals, 5 mg/kg) was 9.68 µg/mL and 7.41 µg/mL and 3.49 µg/mL. For the same compound, the “Calc. Conc. (plasma concentration)” value (mouse plasma, 5 mg/kg intraperitoneal, samples m.p. 3.x = 3rd time point (0.25 h), individual animals, 5 mg/kg) was 9.08 µg/mL and 7.43 µg/mL and 3.8 µg/mL, the “Calc. Conc. (plasma concentration)” value (mouse plasma, 5 mg/kg intraperitoneal, samples m.p. 4.x = 4th time point (0.33 h), individual animals, 5 mg/kg) was 3.37 µg/mL and 1.01 µg/mL and 3.73 µg/mL and the “Calc. Conc. (plasma concentration)” value (mouse plasma, 5 mg/kg intraperitoneal, samples m.p. 5.x = 5th time point (0.5 h), individual animals, 5 mg/kg) was 1.87 µg/mL and 1.31 µg/mL. For the same compound, the “Calc. Conc. (plasma concentration)” value (mouse plasma, 5 mg/kg intraperitoneal, samples m.p. 6.x = 6th time point (0.75 h), individual animals, 5 mg/kg) was 0.110 µg/mL and 0.872 µg/mL and 0.461 µg/mL, the “Calc. Conc. (plasma concentration)” value (mouse plasma, 5 mg/kg intraperitoneal, samples m.p. 7.x = 7th time point (1.0 h), individual animals, 5 mg/kg) was 0.551 µg/mL and 0.213 µg/mL and 0.457 µg/mL and the “Calc. Conc. (plasma concentration)” value (mouse plasma, 5 mg/kg intraperitoneal, samples m.p. 8.x = 8th time point (2.0 h), individual animals, 5 mg/kg) was 0.0898 µg/mL and 0.0404 µg/mL and 0.0440 µg/mL. The “Calc. Conc. (plasma concentration)” value (mouse plasma, 5 mg/kg intraperitoneal, samples m.p. 9.x = 9th time point (3.0 h), individual animals, 5 mg/kg) was 0.0103 µg/mL and 0.0354 µg/mL and 0.00806 µg/mL, the “Calc. Conc. (plasma concentration)” value (mouse plasma, 5 mg/kg intraperitoneal, samples m.p. 10.x = 10th time point (4.0 h), individual animals, 5 mg/kg) was 0.00577 µg/mL and 0.00418 µg/mL and the “Calc. Conc. (plasma concentration)” value (mouse plasma, 15 mg/kg intraperitoneal, samples m.p. 1.x = 1st time point (0.08 h), individual animals, 15 mg/kg) was 9.67 µg/mL. For the same compound, the “Calc. Conc. (plasma concentration)” value (mouse plasma, 15 mg/kg intraperitoneal, samples m.p. 2.x = 2nd time point (0.16 h), individual animals, 15 mg/kg) was 8.58 µg/mL, the “Calc. Conc. (plasma concentration)” value (mouse plasma, 15 mg/kg intraperitoneal, samples m.p. 3.x = 3rd time point (0.25 h), individual animals, 15 mg/kg) was 9.53 µg/mL and 5.59 µg/mL and 14.3 µg/mL and the “Calc. Conc. (plasma concentration)” value (mouse plasma, 15 mg/kg intraperitoneal, samples m.p. 4.x = 4th time point (0.33 h), individual animals, 15 mg/kg) was 5.6 µg/mL and 12.3 µg/mL and 4.44 µg/mL. For the same compound, the “Calc. Conc. (plasma concentration)” value (mouse plasma, 15 mg/kg intraperitoneal, samples m.p. 5.x = 5th time point (0.5 h), individual animals, 15 mg/kg) was 4.07 µg/mL and 3.52 µg/mL and 7.05 µg/mL, the “Calc. Conc. (plasma concentration)” value (mouse plasma, 15 mg/kg intraperitoneal, samples m.p. 6.x = 6th time point (0.75 h), individual animals, 15 mg/kg) was 0.0261 µg/mL and 3.72 µg/mL and 2.99 µg/mL and the “Calc. Conc. (plasma concentration)” value (mouse plasma, 15 mg/kg intraperitoneal, samples m.p. 7.x = 7th time point (1.0 h), individual animals, 15 mg/kg) was 0.534 µg/mL and 2.28 µg/mL and 1.61 µg/mL. For the same compound, the “Calc. Conc. (plasma concentration)” value (mouse plasma, 15 mg/kg intraperitoneal, samples m.p. 8.x = 8th time point (2.0 h), individual animals, 15 mg/kg) was 0.145 µg/mL and 0.0926 µg/mL, the “Calc. Conc. (plasma concentration)” value (mouse plasma, 15 mg/kg intraperitoneal, samples m.p. 9.x = 9th time point (3.0 h), individual animals, 15 mg/kg) was <0 ug/mL (2×) and 0.0178 ug/mL and the “Calc. Conc. (plasma concentration)” value (mouse plasma, 50 mg/kg intraperitoneal, samples m.p. 1.x = 1st time point (0.08 h), individual animals, 50 mg/kg) was 39.4 µg/mL and 26.6 µg/mL. For the same compound, the “Calc. Conc. (plasma concentration)” value (mouse plasma, 50 mg/kg intraperitoneal, samples m.p. 2.x = 2nd time point (0.16 h), 5x dil., individual animals, 50 mg/kg) was 64.7 µg/mL and 57.7 µg/mL and 58.9 µg/mL, the “Calc. Conc. (plasma concentration)” value (mouse plasma, 50 mg/kg intraperitoneal, samples m.p. 3.x = 3rd time point (0.25 h), 5x dil., individual animals, 50 mg/kg) was 56.8 µg/mL and 61.7 µg/mL and 64.2 µg/mL and the “Calc. Conc. (plasma concentration)” value (mouse plasma, 50 mg/kg intraperitoneal, samples m.p. 4.x = 4th time point (0.33 h), individual animals, 50 mg/kg) was 42.1 µg/mL and 43.6 µg/mL and 135 µg/mL. The “Calc. Conc. (plasma concentration)” value (mouse plasma, 50 mg/kg intraperitoneal, samples m.p. 5.x = 5th time point (0.5 h), individual animals, 50 mg/kg) was 34.7 µg/mL and 27.0 µg/mL and 4.06 µg/mL, the “Calc. Conc. (plasma concentration)” value (mouse plasma, 50 mg/kg intraperitoneal, samples m.p. 6.x = 6th time point (0.75 h), individual animals, 50 mg/kg) was 11.4 µg/mL and 15.0 µg/mL and the “Calc. Conc. (plasma concentration)” value (mouse plasma, 50 mg/kg intraperitoneal, samples m.p. 7.x = 7th time point (1.0 h), individual animals, 50 mg/kg) was 9.26 µg/mL and 2.33 µg/mL and 1.40 µg/mL. For the same compound, the “Calc. Conc. (plasma concentration)” value (mouse plasma, 50 mg/kg intraperitoneal, samples m.p. 8.x = 8th time point (2.0 h), individual animals, 50 mg/kg) was 0.555 µg/mL and 1.30 µg/mL and 0.582 µg/mL, the “Calc. Conc. (plasma concentration)” value (mouse plasma, 50 mg/kg intraperitoneal, samples m.p. 9.x = 9th time point (3.0 h), individual animals, 50 mg/kg) was 0.120 µg/mL and 0.105 µg/mL and the “Calc. Conc. (plasma concentration)” value (mouse plasma, 50 mg/kg intraperitoneal, samples m.p. 10.x = 10th time point (4.0 h), individual animals, 50 mg/kg) was 0.0471 µg/mL and 0.143 µg/mL and 0.199 µg/mL.
